From US20080107614A1, “PEPTIDE-BASED CONDITIONERS” (priority 2006, published 2008)
Ends that are not written are not given here. * marks the point of attachment. Biotin = O=C1N[C@H]2[C@H](CS[C@H]2CCCCC(=O)*)N1

Tests used:
[1] = Titer-based assay of hair-binding phage clones; parameters: species or system human; details: output pfu retained by 10 mg of normal hair; input 10^14 pfu; acid-eluted phage
Experimental: Phage clones displaying specific peptides were used for comparing the binding characteristics of different peptide sequences. A titer-based assay was used to quantify the phage binding. This assay measures the output pfu retained by 10 mg of hair surfaces, having a signal to noise ratio of 10^3 to 10^4. The input for all the phage clones was 10^14 pfu. It should be emphasized that this assay measures the peptide-expressing phage particle, rather than peptide binding.
Normal hairs were cut into 0.5 cm lengths and 10 mg of the cut hair was placed in each well of a 96-well filter plate (Qiagen). Then, the wells were filled with blocking buffer containing 1 mg/mL BSA in TBST-0.5% and incubated for 1 h at 4° C. The hairs were washed 5 times with TBST-0.5%. The wells were then filled with 1 mL of TBST-0.5% containing 1 mg/mL BSA and then purified phage clones (10^14 pfu) were added to each well. The hair samples were incubated for 15 min at room temperature and then washed 10 times with TBST-0.5%. The hairs were transferred to a clean well and 1.0 mL of a non-specific elution buffer, consisting of 1 mg/mL BSA in 0.2 M Glycine-HCl at pH 2.2, was added to each well. The samples were incubated for 10 min and then 160 μL of neutralization buffer (1 M Tris-HCl, pH 9.2) was added to each well. The eluted phage from each well were transferred to a new tube for titering and sequencing analysis.
To titer the bound phage, the eluted phage was diluted with SM buffer to prepare 10-fold serial dilutions of 10^1 to 10^8. A 10 μL aliquot of each dilution was incubated with 200 μL of mid-log phase E. coli ER2738 (New England BioLabs), and grown in LB medium for 20 min and then mixed with 3 mL of agarose top (LB medium with 5 mM MgCl2, and 0.7% agarose) at 45° C. This mixture was spread onto a LB medium/IPTG/Xgal (5-bromo-4-chloro-3-indolyl-β-D-galactopyranoside) plate (LB medium with 15 g/L agar, 0.05 g/L IPTG, and 0.04 g/L Xgal) and incubated overnight at 37° C.

[2] = ELISA of phage-peptide clones on pig skin (specificity control); format: binding; details: for Pig Skin A450: phage ELISA, anti-M13 HRP conjugate, mean of at least three replicates
Experimental: (§1) Enzyme-linked immunosorbent assay (ELISA) was used to evaluate the hair-binding specificity of selected phage-peptide clones. Phage-peptide clones identified in Examples 1 and 2 along with a randomly chosen control G-F9, KHGPDLLRSAPR (given as SEQ ID NO:63) were amplified. More than […] (plaque forming units) phage were added to pre-blocked hair surfaces.
(§2) A unique hair or pig skin-bottom 96-well apparatus was created by applying one layer of PARAFILM® under the top 96-well block of a Minifold I Dot-Blot System (Schleicher & Schuell, Inc., Keene, N.H.), adding hair or a layer of hairless pig skin on top of the PARAFILM® cover, and then tightening the apparatus. For each clone to be tested, the hair-covered well was incubated for 1 h at room temperature with 200 μL of blocking buffer, consisting of 2% non-fat dry milk (Schleicher & Schuell, Inc.) in TBS. A second Minifold system with pig skin at the bottom of the wells was treated with blocking buffer simultaneously to serve as a control. The blocking buffer was removed by inverting the systems and blotting them dry with paper towels. The systems were rinsed 6 times with wash buffer consisting of TBST-0.05%. The wells were filled with 200 μL of TBST-0.5% containing 1 mg/mL BSA and then 10 μL (over […]) of purified phage stock was added to each well. The samples were incubated at 37° C. for 15 min with slow shaking. The non-binding phage was removed by washing the wells 10 to 20 times with TBST-0.5%. Then, 100 μL of horseradish peroxidase/anti-M13 antibody conjugate (Amersham USA, Piscataway, N.J.), diluted 1:500 in the blocking buffer, was added to each well and incubated for 1 h at room temperature. The conjugate solution was removed and the wells were washed 6 times with TBST-0.05%. TMB (3,3′,5,5′-tetramethylbenzidine) substrate (200 μL), obtained from Pierce Biotechnology (Rockford, Ill.) was added to each well and the color was allowed to develop for between 5 to 30 min, typically for 10 min, at room temperature. Then, stop solution (200 μL of 2 M H2SO4) was added to each well and the solution was transferred to a 96-well plate and the A450 was measured using a microplate spectrophotometer (Molecular Devices, Sunnyvale, Calif.). The resulting absorbance values, reported as the mean of at least three replicates, and the standard error of the mean (SEM) are given in Table 10.

[3] = ELISA of phage-peptide clones on hair; format: binding, human; details: for Hair A450: phage ELISA, anti-M13 HRP conjugate, mean of at least three replicates
Experimental: as §1, §2

[4] = ELISA-based MB50 determination on pig skin; format: binding; details: for binding affinity for skin: in words, from MB50; for EC50: substrate Pig Skin, biotinylated peptide
Excerpt: (§3) The term “MB50” refers to the concentration of the binding peptide that gives a signal that is 50% of the maximum signal obtained in an ELISA-based binding assay as described herein. The MB50 provides an indication of the strength of the binding interaction or affinity of the components of the complex. The lower the value of MB50, the stronger the interaction of the peptide with its corresponding substrate.
(§4) Hair-binding and skin-binding peptides were synthesized by SynPep Inc. (Dublin, Calif.). The peptides were biotinylated by adding a biotinylated lysine residue at the C-terminus of the amino acid binding sequences for detection purposes and an amidated cysteine was added to the C-terminus of the sequence.
(§5) For hair samples, the procedure used was as follows. The setup of the surface specific 96-well system used was the same as that described in Example 5. Briefly, the 96-wells with hair or pig skin surfaces were blocked with blocking buffer (SUPERBLOCK™ from Pierce Chemical Co., Rockford, Ill.) at room temperature for 1 h, followed by six washes with TBST-0.5%, 2 min each, at room temperature. Various concentrations of biotinylated, binding peptide were added to each well, incubated for 15 min at 37° C., and washed six times with TBST-0.5%, 2 min each, at room temperature. Then, streptavidin-horseradish peroxidase (HRP) conjugate (Pierce Chemical Co.) was added to each well (1.0 μg per well), and incubated for 1 h at room temperature. After the incubation, the wells were washed six times with TBST-0.5%, 2 min each at room temperature. Finally, the color development and the measurement were performed as described in Example 5.
For the measurement of MB50 of the peptide-skin complexes, the following procedure was used. First, the pigskin was treated to block the endogenous biotin in the skin. This was done by adding streptavidin to the blocking buffer. After blocking the pigskin sample, the skin was treated with D-biotin to block the excess streptavidin binding sites. The remaining steps were identical to those used for the hair samples.
(§6) The results were plotted as A450 versus the concentration of peptide using GraphPad Prism 4.0 (GraphPad Software, Inc., San Diego, Calif.).

[5] = ELISA-based MB50 determination on hair; format: binding, human; details: for binding affinity for respective substrate (hair): in words, from MB50; for EC50: biotinylated peptide
Excerpt: as §3, §4, §5, §6

[6] = Peptide competition ELISA with D21 phage; format: binding, human
Experimental: The purpose of this Example was to test the peptide binding site specificity and affinity of the hair-binding peptide D21 using a competition ELISA. The ELISA assay only detects phage particles that remain bound to the hair surface.
The synthetic hair-binding peptide D21, given as SEQ ID NO:46 was synthesized by SynPep (Dublin, Calif.). As a control, an unrelated synthetic skin-binding peptide (SK-1), given as SEQ ID NO:61, was added to the system. The experimental conditions were similar to those used in the ELISA method described in Example 5. Briefly, 100 μL of Binding Buffer (1×TBS with 0.1% Tween® 20 and 1 mg/mL BSA) and 10^11 pfu of the pure D21 phage particles were added to each well of the 96-well filter plate, which contained a sample of normal hair. The synthetic peptide (100 μg) was added to each well (corresponding to concentration of 0.8 mM). The reactions were carried out at room temperature for 1 h with gentle shaking, followed by five washes with TBST-0.5%. The remaining steps were identical to the those used in the ELISA method described in Example 5. Each individual ELISA test was performed in triplicate; the values in Table 11 are the means of the triplicate determinations.

[7] = in words, from the data in Table 10

| Substance | Phage Titer [1] | Pig Skin A450 [2] | Hair A450 [3] | also measured |
| --- | --- | --- | --- | --- |
| MPKYYLQ (displayed on phage; Hair-binding peptide) [Clone J] | 1.24 × 10^6 |  |  |  |
| GPHDTSSGGVRPNLHHTSKKEKRENRKVPFYSHSVTSRGNV [Clone D5] |  | 0.104 | 0.652 |  |
| HLTVPWRGGGSAVPFYSHSQITLPNH [Clone F] | 1.11 × 10^6 |  |  |  |
| KHGPDLLRSAPR [Clone G-F9, reference compound] |  | −0.137 | 0.074 |  |
| KHPTYRQ (displayed on phage; Hair-binding peptide) [Clone H] | 1.30 × 10^6 |  |  |  |
| HPVWPAI (displayed on phage; Hair-binding peptide) [Clone D] | 8.20 × 10^4 |  |  |  |
| Binding Peptide D21: biotinylated hair-binding peptide D21 (binding sequence SEQ ID NO:46) (RTNAADHPAAVTK(Biotin)C-NH2; N-terminus assumed; SMILES CC(C)[C@H](NC(=O)[C@H](C)NC(=O)[C@H](C)NC(=O)[C@@H]1CCCN1C(=O)[C@H](Cc1c[nH]cn1)NC(=O)[C@H](CC(=O)O)NC(=O)[C@H](C)NC(=O)[C@H](C)NC(=O)[C@H](CC(N)=O)NC(=O)[C@@H](NC(=O)[C@@H](N)CCCNC(=N)N)[C@@H](C)O)C(=O)N[C@H](C(=O)N[C@@H](CCCCNC(=O)CCCC[C@@H]1SC[C@@H]2NC(=O)N[C@@H]21)C(=O)N[C@@H](CS)C(N)=O)[C@@H](C)O) |  |  |  | binding affinity for skin [4]: relatively low |
| TDMQAPTKSYSN [Clone C5] |  | 0.047 | 0.548 |  |
| I-B5 (TPPELLHGDPRS; Hair-binding peptide) [listing 1 of 2 here] |  |  |  | binding affinity for respective substrate (hair) [5]: high; binding affinity for skin [4]: relatively low |
| TPALDGLRQPLR [Clone C18] |  | 0.132 | 0.34 |  |
| RTNAADHPAAVT [Peptide D21] |  | 0.04 | 1.051 | binding affinity for respective substrate (hair) [5]: high; EC50 ([5]; substrate Normal Hair): 2000 nM; competition with the phage clone D21 for the same binding sites on the hair surface ([6]; in words): does compete; EC50 [4]: 40000 nM; affinity for pig skin [2, 7]: very low; binding affinity for hair [3, 7]: very strong; selectivity for hair compared to pig skin [3, 7]: highest |
| MPLYYLQ (displayed on phage; Hair-binding peptide) [Clone E] | 1.70 × 10^5 |  |  |  |
| AKTHKHPAPSYS [Clone C13] |  | 0.024 | 0.375 |  |
| NSPGYQADSVAIG [Clone D30] |  | 0.287 | 0.414 |  |
| LGIPQNL (displayed on phage; Hair-binding peptide) [Clone D39] |  | 0.086 | 0.685 |  |
| LPRIANTWSPS [Clone F35] |  |  |  | binding affinity for respective substrate (hair) [5]: high; EC50 ([5]; substrate Bleached Hair): 3000 nM |
| I-B5 (TPPELLHGDPRS; Hair-binding peptide) [listing 2 of 2 here] |  |  |  | EC50 ([5]; substrate Normal and Bleached Hair): 300 nM; EC50 [4]: > 100000 nM |
| TPFHSPENAPGS [SK-1] |  |  |  | binding affinity for skin [4]: high; EC50 [4]: 700 nM |
| TAATTSP (displayed on phage; Hair-binding peptide) [Clone B1] |  | 0.127 | 0.42 |  |
| DLHTVYH (displayed on phage; Hair-binding peptide) [Clone A] | 7.50 × 10^4 |  |  |  |
| HIKPPTR (displayed on phage; Hair-binding peptide) [Clone B] | 1.21 × 10^5 |  |  |  |
| SLNWVTIPGPKI [Clone C10] |  | 0.032 | 0.542 |  |
| MHAHSIA (displayed on phage; Hair-binding peptide) [Clone A36] |  | 0.173 | 0.585 |  |
| GPHDTSSGGVRPNLHHTSKKEKRENRKVPFYSHSVTSRGNV [Clone G] | 1.67 × 10^8 |  |  |  |
| EQISGSLVAAPW [Clone A5] |  | 0.256 | 0.431 |  |
| RTNAADHPAAVT [Clone D21] |  |  |  | A450 ([6]; 10^11 pfu D21 phage on normal hair, synthetic peptide 100 μg per well (0.8 mM) where added, mean of triplicate): 1.878 |
